From patent publication US9958453B2, “Biological sensing method for separating biomolecule” (priority 2015, dated 2018)

Columns and labels:
Streptococcus pneumoniae = assay: Field-effect transistor biological sensing device, detecting of Streptococcus pneumoniae; assay type: binding, Streptococcus pneumoniae ATCC 49136; details: amino acid sequence modified onto field-effect transistor; broths of Streptococcus pneumoniae with different concentrations; FIG. 3
Excerpt: UlaG protein is expressed in the cell wall of Streptococcus pneumoniae. The following experimental example used the biological sensing device of the present invention to detect whether the sample included Streptococcus pneumoniae, and the detecting method included the following steps: • 1. The amino acid sequence including the sequence shown in SEQ ID NO: 1 was largely expressed by Escherichia coli. • 2. The amino acid sequence in step 1 was purified, and then modified onto a surface of a field-effect transistor. • 3. The field-effect transistor modified with the amino acid sequence in step 2 was contact to broths of Streptococcus pneumoniae with different concentrations, and the potential difference of the surface of the field-effect transistor modified was measured. The strain of Streptococcus pneumoniae used in this experimental example was ATCC 49136.
FIG. 2 is a schematic view of a biological sensing device 300 according to an embodiment of the present invention detecting a biomolecule 400. […]
FIG. 3 is a potential difference-bacterial concentration diagram of an embodiment of the present invention for the detecting experiment, which the bacterial concentration is represented by the number of colonies per milliliter (mL) of the broth. […] The Streptococcus pneumoniae can be detected by the change in the surface potential.

UlaG protein = assay: Phage display peptide screening against UlaG protein on ELISA plate; assay type: binding; details: UlaG protein expressed by Escherichia coli, purified, modified onto ELISA plate
Excerpt: The screening method of an amino acid according to an embodiment of the present invention included the following steps: • 1. UlaG protein was largely expressed by Escherichia coli • 2. The UlaG protein in step 1 was purified, and then modified onto an enzyme-linked immunosorbent assay (ELISA) plate. • 3. Phage display peptide system was used to perform the screening. The phage display peptide system used bacteriophages with various peptide segments to contact the UlaG protein. After a process of repeated binding, washing, eluting, amplifying, and re-binding, the bacteriophage that can bind to the UlaG protein was selected. • 4. The selected bacteriophage in step 3 was amplified and sequenced by polymerase chain reaction (PCR). The amino acid sequence that can bind to the UlaG protein was then obtained.
Therefore, an amino acid sequence including the sequence shown in SEQ ID NO: 1 or SEQ ID NO: 2 can be used in the recognition of the UlaG protein.

Streptococcus mutans = assay: Field-effect transistor biological sensing device, comparative example Streptococcus mutans; assay type: binding; details: FIG. 4
Method: Furthermore, the present experimental example applied Streptococcus mutans as a comparative example using the abovementioned biological sensing device 300 and detecting method. The field-effect transistor modified with the amino acid sequence including the sequence shown in SEC) ID NO: 1 was contact to broths of Streptococcus mutans with different concentrations, and the potential difference of the surface of the field-effect transistor modified was measured.
FIG. 4 is a potential difference-bacterial concentration diagram of a comparative example for a detecting experiment, which the bacterial concentration is represented by the number of colonies per mL of the broth. […] Therefore, Streptococcus […] is not recognized by and bound to the amino acid sequence of the biological sensing device of the present invention.

| Substance | potential difference of the surface of the field-effect transistor vs bacterial concentration (Streptococcus pneumoniae) | binding affinity to the UlaG protein (UlaG protein) | potential difference of the surface of the field-effect transistor vs bacterial concentration (Streptococcus mutans; amino acid sequence modified onto field-effect transistor, broths of Streptococcus mutans with different concentrations) | reaction of the amino acid sequence with Streptococcus mutans (Streptococcus mutans; field-effect transistor device) |
| --- | --- | --- | --- | --- |
| SEQ ID NO: 1: short sequence of 7 amino acids, selected by phage display, that binds the UlaG protein; used on the field-effect transistor (ENIMPVL; amino acid sequence bound to UlaG protein) | increased with the increase of the bacterial concentration | high binding affinities | did not change accordingly with the increase of the bacterial concentration | does not react |
| SEQ ID NO: 2: short sequence of 7 amino acids, selected by phage display, that binds the UlaG protein (ERIMPVL; amino acid sequence bound to UlaG protein) | – | high binding affinities | – | – |
